Data on one compound can be found in patent US20260103740A1, “METHOD AND APPARATUS FOR USING L[…] BEADS FOR ANTIMICROBIAL SUSCEPTIBILITY TESTING” (General Electric Company, priority 2022, published 2026).

The subject of the experiment is E. coli. The settings on record: samples loaded by microfluidic manifold and manually (non-manifold control); antibiotic bead minus control bead Ct; FIG. 7.

Experimental: The tetracycline-lyophilized reagent bead 68 was prepared such that each tetracycline-lyophilized reagent bead 68 when dissolved in 10 microliters of water yields a solution containing 0.1, 0.5, 2, and 10, micrograms of tetracycline/mL of water. To complete the trials, the embedded amplification bead 20 in the solid wax 28 was placed at the bottom of each of the amplification reaction vessels 24, and the antibiotic bead 22 was placed on top of the solid wax 28. […] Bacterial growth in the presence of the varying tetracycline concentrations mentioned above was conducted for a period of about three hours at an incubation temperature of 37° C. The temperature was then raised to above the melting point of the solid wax 28, and amplification was performed to assess the inhibitory effects of tetracycline on bacterial growth. The threshold value (Ct) of the amplification reactions were measured. […] The data was normalized by subtracting the mean Ct value for no-drug positive control from individual Ct values across the drug-containing incubations. […]
As shown in the graphical representation of lyophilized drug reagent bead testing 60, the tetracycline concentration 62 for both liquid tetracycline 66, the control group reagent, and tetracycline-lyophilized reagent beads 68 were measured in micrograms per milliliter (μg/mL), relative to the delta Ct values 64 produced by the concentration. […]

On to `CN(C)[C@@H]1C(O)=C(C(N)=O)C(=O)[C@@]2(O)C(O)=C3C(=O)c4c(O)cccc4[C@@](C)(O)[C@H]3C[C@@H]12.Cl` [tetracycline, Tetracycline hydrochloride], for which the “growth inhibition (delta Ct values versus tetracycline concentration)” value was “demonstrated growth inhibition at the same concentrations”.
